Results on 5 molecules are retold here after PubChem BioAssay AID2060495 (Molecular Pharmacology Branch, DTP, NCI, 2025).

Several values for one entry are separate records, joined by “and”; a condition that tells them apart may be missing. Equal entries are not always repeated.

The term IC50 denotes the concentration that inhibits the measured activity by half. By viability, T/C is commonly meant the result in the treated group divided by that in the control group, in per cent.

The test system of the assay is 521955-158-R2-J5-PDC complex spheroid viability. Put plainly: Anticancer human tumor 521955-158-R2-J5-PDC patient-derived pancreatic carcinoma cell line growth inhibition [GQUAD]. Particulars: for viability, T/C: stronger effect = lower value. An excerpt:
DNA G-quadruplex Stabilizer Agents in Combinations in Complex Spheroids
A high-throughput screen of multi-cell type tumor spheroids was designed to identify active combinations of DNA G-quadruplex stabilizer agents and targeted small molecules. Complex spheroids include a stromal component modeled by human endothelial cells (HUVEC) and fibroblasts modeled by human mesenchymal stem cells (MSCs). The concentration ranges selected for each drug and investigational agent were based upon clinically achievable concentrations if the clinical Cmax of the agent was known.
Compounds. The drugs and investigational agents: pidnarulex (CX-5461; NSC782164), APTO-253 (NSC789042), BRACO-19 (NSC847499), peposertib (NSC802822), ceralasertib (NSC780249), elimusertib (NSC800525), camonsertib (NSC841442), AZD-1390 (NSC803789), olaparib (NSC753686), talazoparib (NSC767125), ART-558 (NSC835418), sotorasib (NSC818433), MRTX-1133 (NSC836407), SN-38 (NSC673596), topotecan (NSC609699), etoposide (NSC141540), doxorubicin (NSC123127), gemcitabine (NSC613327), 5-fluorouracil (NSC19893), paclitaxel (NSC125973), vemurafenib (NSC761431), panobinostat (NSC761190), R-306465 (JNJ-16241199; NSC773264), adavosertib (NSC754352), TP-3654 (NSC805149), carboplatin (NSC241240), KSQ-4279 (NSC840948), and staurosporine (NSC755774) were obtained from the National Cancer Institute (NCI) Developmental Therapeutics Program Chemical Repository (34). The FDA-approved anticancer drug set is available from the NCI Developmental Therapeutics Program. […] The stock solutions were prepared in dimethyl sulfoxide (DMSO, Sigma-Aldrich, St. Louis, MO, cat. D2650) at 800-fold the tested concentration and stored at -70 degrees C prior to their use. All drugs and investigational agents were tested over a range starting from a high concentration at or near the clinical Cmax and decreasing in half-log increments. If the clinical Cmax for an agent had not been determined, the highest concentration tested was 10 microM.
2.3 Cell Culture. All cells were maintained in an incubator at 37 degrees C and 5% CO2 with 95% humidity. The PDC lines were cultured according to standard operating procedures established by the NCI PDMR. All PDCs were thawed and cultured in Matrigel-coated flasks prepared with a working solution of 1X Ham's F-12 nutrient mix, without supplementation (Invitrogen, cat. 11765054), 100 U/mL penicillin-streptomycin (Invitrogen, cat. 15140122), and 2.5% Matrigel (Corning Inc., cat. 354248) for the first three passages. The 857933-349-R-J2-PDC line was cultured in 6C/Colon 1B media, which includes advanced DMEM/F-12 (Thermo Fisher Scientific, cat. 12634028), 10 mM HEPES (Thermo Fisher Scientific, cat. 15630080), 1X GlutaMAX supplement (Thermo Fisher Scientific, cat. 35050061), 0.1 mg/mL primocin (InvivoGen, cat. ant-pm-2), 10% defined fetal bovine serum, heat inactivated (HyClone Laboratories Inc., cat. SH30070.03HI), 50% L-WRN conditioned media (ATCC, cat. CRL-3276), 1.25 mM N-Acetyl-L-cysteine (Sigma-Aldrich, cat. A9165), 10 mM nicotinamide (Sigma-Aldrich, cat. N0636), 1X B-27 supplement (Thermo Fisher Scientific, cat. 17504044), 1X N-2 supplement (Thermo Fisher Scientific, cat. 17502048), 10 microM Y-27632 dihydrochloride (Tocris Bioscience, cat. 1254), and 50 ng/mL human EGF recombinant protein (Thermo Fisher Scientific, cat. PHG0311). The 485176-168-R4-J1-PDC line was cultured in Panc media, which includes all 6C/Colon 1B media components plus 100 ng/mL human FGF-10 (Thermo Fisher Scientific, cat. 100-26), 500 nM SB-431542 (Selleckchem, cat. S1067), and gastrin (Tocris, cat. 3006).
[…]

The mark [1] stands for this setting: curve of first compound, second compound 0.0316 µM.
Where [2] appears, read: curve of first compound, second compound 0.1 µM.
[3] abbreviates: curve of first compound, second compound 0.316 µM.
Setting [4] is: curve of first compound, second compound 1 µM.
Setting [5] is: curve of first compound, second compound 3.16 µM.
Where [6] appears, read: curve of first compound, second compound 10 µM.
The mark [7] stands for this setting: second compound 0.0316 µM, first compound 0.0316 µM.
[8] abbreviates: second compound 0.0316 µM, first compound 0.316 µM.
The mark [9] stands for this setting: second compound 0.1 µM, first compound 0.0316 µM.
The mark [10] stands for this setting: second compound 0.1 µM, first compound 0.316 µM.
[11] abbreviates: second compound 0.316 µM, first compound 0.0316 µM.
The mark [12] stands for this setting: second compound 0.316 µM, first compound 0.316 µM.
Setting [13] is: second compound 1 µM, first compound 0.0316 µM.
Setting [14] is: second compound 1 µM, first compound 0.316 µM.
[15] abbreviates: second compound 3.16 µM, first compound 0.0316 µM.
Setting [16] is: second compound 3.16 µM, first compound 0.316 µM.
The mark [17] stands for this setting: second compound 10 µM, first compound 0.0316 µM.
[18] abbreviates: second compound 10 µM, first compound 0.316 µM.
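Note: spheroids exposed to agents for one week before reading.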

Turning to `O=C(c1cc(Cc2n[nH]c(=O)c3ccccc23)ccc1F)N1CCN(C(=O)C2CC2)CC1` + Cc1[nH]c2ccc(F)cc2c1-c1nc2c3cccnc3c3ncccc3c2[nH]1, the IC50 reads like this: under setting [1], greater than 10000 nM; under setting [2], greater than 10000 nM; under setting [3], greater than 10000 nM; under setting [4], greater than 10000 nM; under setting [5], greater than 10000 nM; under setting [6], greater than 10000 nM. In addition, the viability, T/C under setting [7] was 84.3%; the viability, T/C (second compound 0.0316 µM, first compound 0.1 µM) was 88.5%; the viability, T/C under setting [8] was 89.8%; the viability, T/C (second compound 0.0316 µM, first compound 1 µM) was 80.4%; the viability, T/C (second compound 0.0316 µM, first compound 3.16 µM) was 93%; the viability, T/C (second compound 0.0316 µM, first compound 10 µM) was 74.5%. In addition, the viability, T/C under setting [9] is 83.4%; the viability, T/C (second compound 0.1 µM, first compound 0.1 µM) is 80%; the viability, T/C under setting [10] is 82%; the viability, T/C (second compound 0.1 µM, first compound 1 µM) is 83.2%; the viability, T/C (second compound 0.1 µM, first compound 3.16 µM) is 87.9%; the viability, T/C (second compound 0.1 µM, first compound 10 µM) was 96.3%. Also, the viability, T/C was 80.9% under setting [11]; 76.9% (second compound 0.316 µM, first compound 0.1 µM); 102% under setting [12]; 102% (second compound 0.316 µM, first compound 1 µM); 88.3% (second compound 0.316 µM, first compound 3.16 µM); 91% (second compound 0.316 µM, first compound 10 µM). For the same molecule, the viability, T/C was 92.4% under setting [13]; 93% (second compound 1 µM, first compound 0.1 µM); 99.4% under setting [14]; 98.8% (second compound 1 µM, first compound 1 µM); 104% (second compound 1 µM, first compound 3.16 µM); 92.7% (second compound 1 µM, first compound 10 µM). Moreover, the viability, T/C reads like this: under setting [15], 91.8%; (second compound 3.16 µM, first compound 0.1 µM) 104%; under setting [16], 78.7%; (second compound 3.16 µM, first compound 1 µM) 98.3%; (second compound 3.16 µM, first compound 3.16 µM) 98.7%; (second compound 3.16 µM, first compound 10 µM) 84.5%. The viability, T/C runs as follows: under setting [17], 86.8%; (second compound 10 µM, first compound 0.1 µM) 92.7%; under setting [18], 88.2%; (second compound 10 µM, first compound 1 µM) 102%; (second compound 10 µM, first compound 3.16 µM) 92.5%; (second compound 10 µM, first compound 10 µM) 82.6%.

With `O=c1[nH]cc(F)c(=O)[nH]1`, the viability, T/C reads like this: (compound 0.0316 µM) 86.1% and 107% and 116%; (compound 0.1 µM) 86% and 88.3% and 87.4%; (compound 0.316 µM) 89.2% and 109% and 92.6%; (compound 1 µM) 80% and 99% and 101%; (compound 3.16 µM) 47.1% and 45% and 102%; (compound 10 µM) 20.3% and 18.2% and 54.8%. For the same molecule, the concentration for half-maximal inhibition (IC50) (curve of compound) is 2850 nM and 2840 nM and > 10000 nM.

On to `CC[C@@]1(O)C(=O)OCc2c1cc1n(c2=O)Cc2cc3c(CN(C)C)c(O)ccc3nc2-1` + Cc1cnc(CNC(=O)c2c(=O)c3ccc(N4CCCN(C)CC4)nc3n3c2sc2ccccc23)cn1, for which the IC50 reads like this: under setting [1], 56.2 nM; under setting [2], 27.8 nM; under setting [3], 10.7 nM; under setting [4], less than 0.999 nM; under setting [5], less than 0.999 nM; under setting [6], less than 0.999 nM. In addition, the viability, T/C (second compound 0.0316 µM, first compound 0.000999 µM) is 82.3%; the viability, T/C (second compound 0.0316 µM, first compound 0.00316 µM) was 80.4%; the viability, T/C (second compound 0.0316 µM, first compound 0.00999 µM) was 59.7%; the viability, T/C under setting [7] is 71.6%; the viability, T/C (second compound 0.0316 µM, first compound 0.0999 µM) is 29%; the viability, T/C under setting [8] was 12.1%. Also, the viability, T/C is 74.9% (second compound 0.1 µM, first compound 0.000999 µM); 78% (second compound 0.1 µM, first compound 0.00316 µM); 73.3% (second compound 0.1 µM, first compound 0.00999 µM); 46.7% under setting [9]; 22.4% (second compound 0.1 µM, first compound 0.0999 µM); 16.2% under setting [10]. In addition, the viability, T/C by setting is: (second compound 0.316 µM, first compound 0.000999 µM) 51.6%; (second compound 0.316 µM, first compound 0.00316 µM) 47.2%; (second compound 0.316 µM, first compound 0.00999 µM) 55%; under setting [11], 29.6%; (second compound 0.316 µM, first compound 0.0999 µM) 18.7%; under setting [12], 15.6%. Moreover, the viability, T/C (second compound 1 µM, first compound 0.000999 µM) is 23.7%; the viability, T/C (second compound 1 µM, first compound 0.00316 µM) was 24.9%; the viability, T/C (second compound 1 µM, first compound 0.00999 µM) is 24.6%; the viability, T/C under setting [13] is 19%; the viability, T/C (second compound 1 µM, first compound 0.0999 µM) is 16.7%; the viability, T/C under setting [14] was 11.2%. The viability, T/C (second compound 3.16 µM, first compound 0.000999 µM) was 21.1%; the viability, T/C (second compound 3.16 µM, first compound 0.00316 µM) is 29.1%; the viability, T/C (second compound 3.16 µM, first compound 0.00999 µM) is 18.2%; the viability, T/C under setting [15] was 17.8%; the viability, T/C (second compound 3.16 µM, first compound 0.0999 µM) is 11.8%; the viability, T/C under setting [16] was 10.1%. Further, the viability, T/C runs as follows: (second compound 10 µM, first compound 0.000999 µM) 21.3%; (second compound 10 µM, first compound 0.00316 µM) 23.7%; (second compound 10 µM, first compound 0.00999 µM) 22.1%; under setting [17], 15.7%; (second compound 10 µM, first compound 0.0999 µM) 11.5%; under setting [18], 6.12%.

As to `CCCS(=O)(=O)Nc1ccc(F)c(C(=O)c2c[nH]c3ncc(-c4ccc(Cl)cc4)cc23)c1F`, the viability, T/C (compound 0.0316 µM) was 112% and 121% and 109%; the viability, T/C (compound 0.1 µM) was 83.8% and 96.3% and 95%; the viability, T/C (compound 0.316 µM) was 73.2% and 96.7% and 148%; the viability, T/C (compound 1 µM) was 102% and 108% and 152%; the viability, T/C (compound 3.16 µM) was 217% and 247% and 153%; the viability, T/C (compound 10 µM) was 92.2% and 112% and 62.1%. Further, the IC50 (curve of compound) was greater than 10000 nM.

In the case of `CC(C)n1c(=O)n(C)c2cnc3cc(F)c(-c4ccc(OCCCN5CCCCC5)nc4)cc3c21`, the viability, T/C is 115% (2×) and 100% (compound 0.0316 µM); 96.9% and 107% and 94.7% (compound 0.1 µM); 114% (2×) and 80.2% (compound 0.316 µM); 91.4% and 95.4% and 89.3% (compound 1 µM); 96.3% and 107% and 96.1% (compound 3.16 µM); 95.6% and 95.5% and 84.2% (compound 10 µM). Also, the IC50 (curve of compound) is greater than 10000 nM.
